Measurements: article PMC12825302, “Structural plasticity enables broad cAn binding and dual activation of CRISPR-associated ribonuclease Cdn1” (Nucleic Acids Research, 2026)

How the values were obtained:
Cdn1 [1] = molecular target: T1, Cdn1 (Psychrobacter lutiphocae, UniProt A0ACN4YG66); experiment: FAM-labeled ssRNA (RNA1) cleavage, urea-PAGE; assay type: biochemical
T1 construct: codon-optimized gene in pET-28a(+), E. coli BL21(DE3), Ni-NTA and SEC; homodimer (SEC-MALS); N-terminal CARF and C-terminal PD-(D/E)xK nuclease domain
T1 sequence (A0ACN4YG66 1-399): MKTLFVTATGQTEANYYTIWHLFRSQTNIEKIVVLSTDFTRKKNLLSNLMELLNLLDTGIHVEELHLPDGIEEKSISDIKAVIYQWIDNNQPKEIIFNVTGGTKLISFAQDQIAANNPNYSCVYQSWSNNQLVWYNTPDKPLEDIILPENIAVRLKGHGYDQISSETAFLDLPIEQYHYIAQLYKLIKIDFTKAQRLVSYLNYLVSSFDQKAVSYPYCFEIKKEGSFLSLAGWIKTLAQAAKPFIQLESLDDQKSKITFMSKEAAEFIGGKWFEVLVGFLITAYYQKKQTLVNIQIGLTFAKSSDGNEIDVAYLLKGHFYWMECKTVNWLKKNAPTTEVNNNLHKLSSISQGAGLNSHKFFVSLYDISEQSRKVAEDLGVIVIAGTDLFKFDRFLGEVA

Cdn1 [2] = molecular target: T1, Cdn1; experiment: ITC; assay type: binding
[3] = molecular target: Cdn1 (CRISPR-associated dual-cOAs-activated ribonuclease 1) (Psychrobacter lutiphocae); experiment: SEC; size-exclusion chromatography during purification (HiLoad 16/600 Superdex 200 prep grade); no cyclic oligoadenylate added
[4] = molecular target: Cdn1 (CRISPR-associated dual-cOAs-activated ribonuclease 1) (Psychrobacter lutiphocae); experiment: SEC-MALS; 10 mg/ml Cdn1 in 50 mM NaH2PO4/Na2HPO4, pH 7.4, 300 mM NaCl; TSKgel G3000SWXL, 0.5 ml/min, 8°C; no cyclic oligoadenylate added

Compound | EC50 (Cdn1 [1]) [nM] | Kd (Cdn1 [2]) [nM] | stoichiometry N [3] | stoichiometry N [4]
Nc1ncnc2c1ncn2[C@@H]1O[C@@H]2COP(=O)(O)O[C@H]3[C@@H](O)[C@H](n4cnc5c(N)ncnc54)O[C@@H]3COP(=O)(O)O[C@H]3[C@@H](O)[C@H](n4cnc5c(N)ncnc54)O[C@@H]3COP(=O)(O)O[C@H]3[C@@H](O)[C@H](n4cnc5c(N)ncnc54)O[C@@H]3COP(=O)(O)O[C@H]3[C@@H](O)[C@H](n4cnc5c(N)ncnc54)O[C@@H]3COP(=O)(O)O[C@H]3[C@@H](O)[C@H](n4cnc5c(N)ncnc54)O[C@@H]3COP(=O)(O)O[C@H]2[C@H]1O [cA6] | 670 ± 98.8 | 740 ± 205 |  | 
Nc1ncnc2c1ncn2[C@@H]1O[C@@H]2COP(=O)(O)O[C@H]3[C@@H](O)[C@H](n4cnc5c(N)ncnc54)O[C@@H]3COP(=O)(O)O[C@H]3[C@@H](O)[C@H](n4cnc5c(N)ncnc54)O[C@@H]3COP(=O)(O)O[C@H]3[C@@H](O)[C@H](n4cnc5c(N)ncnc54)O[C@@H]3COP(=O)(O)O[C@H]2[C@H]1O [cA4] | 2.17 ± 0.68 | 54.6 ± 25.1 |  | 
Nc1ncnc2c1ncn2[C@@H]1O[C@@H]2COP(=O)(O)O[C@H]3[C@@H](O)[C@H](n4cnc5c(N)ncnc54)O[C@@H]3COP(=O)(O)O[C@H]3[C@@H](O)[C@H](n4cnc5c(N)ncnc54)O[C@@H]3COP(=O)(O)O[C@H]2[C@H]1O [cA3] |  | 23 ± 8.7 |  | 
Cdn1 (CRISPR-associated dual-cOAs-activated ribonuclease 1) (enzyme) |  |  | 2 | 2
